Where two headings read alike, the source gives them in different places.
Columns and labels:
Assay type in all cases: in vivo
[1] = system: Echinochloa oryzoides (Ard.) Fritsch (early watergrass); assay: Greenhouse in-water herbicidal activity, flooded pot system; details: ECHOR 2-3 lf (20-30% submerged), 20 DAA
Method: (§1) Weed seeds, nutlets, or vegetative cuttings of the desired test plant species were planted in puddled soil (mud) prepared by mixing a shredded, non-sterilized mineral soil (50.5 percent silt, 25.5 percent clay, and 24 percent sand, with a pH of approximately 7.6 and an organic matter content of approximately 2.9 percent) and water at a 1:1 volumetric ratio. The prepared mud was dispensed in 365 milliliter (mL) aliquots into 480 mL non-perforated plastic pots with a surface area of 86.59 square centimeters (cm^2) leaving a headspace of 3 centimeters (cm) in each pot. Mud was allowed to dry overnight prior to planting or transplanting.
The aquatic environment was created by filling the 3 cm headspace of the pots with water. When required to ensure good germination and healthy plants, a fungicide treatment and/or other chemical or physical treatment was applied. The plants were grown for 4-20 days in a greenhouse with an approximate 14 hour (h) photoperiod which was maintained at about 29° C. during the day and about 26° C. during the night. Nutrients were added as Osmocote® (19:6:12, N:P:K+minor nutrients) at 2 grams (g) per 480 mL pot. […]
Treatment requirements for each compound or herbicidal component were calculated based upon the rates being tested, the concentration of active ingredient or acid equivalent in the formulation, and a treatment application volume of 2 mL per compound per pot.
Measured amounts of formulated compounds were placed in individual glass vials and were dissolved in an aliquot of an aqueous mixture containing 1.25% volume per volume (v/v) Agri-Dex® crop oil concentrate. […]
(§2) The treated plants and control plants were placed in a greenhouse as described above and water was added as needed to maintain a flood in the pot. After approximately 20 days after application (DAA), the condition of the test plants, compared with that of the untreated plants, was determined visually and scored on a scale of 0 to 100 percent where 0 corresponds to no injury or growth reduction and 100 corresponds to complete kill.

[2] = system: Echinochloa crus-galli (L.) P. Beauv. (barnyardgrass); details: ECHCG 2-5 lf (30% submerged), 20 DAA
Method: as §1
(§3) The aquatic environment was created by filling the 3 cm headspace of the pots with water. […] The plants were grown for 4-20 days in a greenhouse with an approximate 14 hour (h) photoperiod which was maintained at about 29° C. during the day and about 26° C. during the night. Nutrients were added as Osmocote® (19:6:12, N:P:K+minor nutrients) at 2 grams (g) per 480 mL pot. Water was added on a regular basis to maintain the paddy flood, and supplemental lighting was provided with overhead metal halide 1000-Watt lamps as necessary. The plants were employed for testing when they reached the second through fifth true leaf stage or 5th node stage.
(§4) Treatments consisted of the benzyl ester of 4-amino-3-chloro-5-fluoro-6-(4-chloro-2-fluoro-3-methoxy-phenyl)pyridine-2-carboxylic acid (Compound II) formulated as a suspension concentrate (SC) and various herbicidal components alone and in combination.
(§5) Measured amounts of formulated compounds were placed in individual glass vials and were dissolved in an aliquot of an aqueous mixture containing 1.25% volume per volume (v/v) Agri-Dex® crop oil concentrate. A stock solution was prepared for each treatment concentration. Applications were made by injecting an appropriate amount of the application solution into the aqueous layer of the flooded greenhouse pot. Control plants were treated in the same manner with the solvent blank.
as §2

[3] = system: Ischaemum rugosum Salisb. (saramollagrass)
Method: as §1, §3, §4, §5, §2

[4] = system: Leptochloa chinensis (L.) Nees (Chinese sprangletop); details: LEFCH 5 lf (30% submerged), 20 DAA
Method: as §1, §3, §4, §5, §2

[5] = system: Alternanthera philoxeroides (Mart.) Griseb. (alligatorweed); assay: Greenhouse in-water herbicidal activity, flooded pot system; details: ALRPH 5 node, 20 DAA
Method: as §1, §3, §4, §5, §2

[6] = system: Cyperus esculentus L. (yellow nutsedge); assay: as above; details: CYPES 4 lf (30% submerged), 20 DAA
Method: as §1, §3, §4, §5, §2

[7] = 2100 ppb (elemental copper basis) in water
[8] = 4200 ppb (elemental copper basis) in water
[9] = 8300 ppb (elemental copper basis) in water

COc1c(Cl)ccc(-c2nc(C(=O)OCc3ccccc3)c(Cl)c(N)c2F)c1F [Compound II, benzyl 4-amino-3-chloro-5-fluoro-6-(4-chloro-2-fluoro-3-methoxyphenyl)pyridine-2-carboxylate]
Compound II Mean % Weed Control ([1]; 33.3 ppb in water): 25.0% | Compound II Mean % Weed Control ([1]; 133.4 ppb in water): 78.0% | Compound II Mean % Weed Control ([2]; 33.25 ppb in water): 65.0% | Compound II Mean % Weed Control ([3]; ISCRU 2-3 lf (30-50% submerged), 66.6 ppb in water, 20 DAA): 75.0% | Compound II Mean % Weed Control ([3]; ISCRU 2-3 lf (30-50% submerged), 133.4 ppb in water, 20 DAA): 85.0% | Compound II Mean % Weed Control ([4]; 66.6 ppb in water): 20.0% | Compound II Mean % Weed Control ([5]; 33.25 ppb in water): 55.0% | Compound II Mean % Weed Control ([5]; 33.3 ppb in water): 55.0% | Compound II Mean % Weed Control ([5]; 66.6 ppb in water): 68.0% | Compound II Mean % Weed Control ([6]; 33.25 ppb in water): 18.0% | Compound II Mean % Weed Control ([6]; 33.3 ppb in water): 18.0% | Compound II Mean % Weed Control ([6]; 66.6 ppb in water): 68.0%

c1cc[n+]2c(c1)-c1cccc[n+]1CC2 [Diquat Dibromide, 9,10-dihydro-8a,10a-diazoniaphenanthrene]
Diquat Dibromide Mean % Weed Control ([1]; 900 ppb in water): 0.0% | Diquat Dibromide Mean % Weed Control ([3]; in vivo): 0.0%

O=C(O)C1C2CCC(O2)C1C(=O)O (centres unmarked) [Endothal, 7-oxabicyclo[2.2.1]heptane-2,3-dicarboxylic acid]
Endothal Mean % Weed Control ([3]; ISCRU 2-3 lf (30-50% submerged), 1120 ppb in water, 20 DAA): 0.0% | Endothal Mean % Weed Control ([3]; ISCRU 2-3 lf (30-50% submerged), 4480 ppb in water, 20 DAA): 0.0% | Endothal Mean % Weed Control ([5]; 1120 ppb in water): 0.0% | Endothal Mean % Weed Control ([5]; 4480 ppb in water): 0.0% | Endothal Mean % Weed Control ([5]; 8960 ppb in water): 0.0% | Endothal Mean % Weed Control ([6]; 1120 ppb in water): 0.0% | Endothal Mean % Weed Control ([6]; 4480 ppb in water): 0.0%

Cn1cc(-c2ccccc2)c(=O)c(-c2cccc(C(F)(F)F)c2)c1 [Fluridone, 1-methyl-3-phenyl-5-(α,α,α-trifluoro-m-tolyl)-4-pyridone]
Fluridone Mean % Weed Control ([3]; ISCRU 2-3 lf (30-50% submerged), 10 ppb in water, 20 DAA): 10.0% | Fluridone Mean % Weed Control ([3]; ISCRU 2-3 lf (30-50% submerged), 45 ppb in water, 20 DAA): 10.0% | Fluridone Mean % Weed Control ([5]; 180 ppb in water): 65.0% | Fluridone Mean % Weed Control ([6]; 10 ppb in water): 0.0% | Fluridone Mean % Weed Control ([6]; 45 ppb in water): 0.0% | Fluridone Mean % Weed Control ([6]; 90 ppb in water): 0.0%

copper(II) sulfate [Copper Sulfate]
Copper Sulfate Mean % Weed Control ([5]; 300 ppb in water): 0.0% | Copper Sulfate Mean % Weed Control ([5]; 600 ppb in water): 0.0% | Copper Sulfate Mean % Weed Control ([5]; 900 ppb in water): 0.0% | Copper Sulfate Mean % Weed Control ([6]; 300 ppb in water): 0.0% | Copper Sulfate Mean % Weed Control ([6]; 600 ppb in water): 0.0%

mixed copper ethanolamine complex
Mixed Copper Ethanolamine Complex Mean % Weed Control [2, 7]: 0.0% | Mixed Copper Ethanolamine Complex Mean % Weed Control [2, 8]: 0.0% | Mixed Copper Ethanolamine Complex Mean % Weed Control [2, 9]: 0.0% | Mixed Copper Ethanolamine Complex Mean % Weed Control ([3]; ISCRU 2-3 lf (30-50% submerged), 8300 ppb (elemental copper basis) in water, 20 DAA): 0.0% | Mixed Copper Ethanolamine Complex Mean % Weed Control [4, 8]: 0.0% | Mixed Copper Ethanolamine Complex Mean % Weed Control [4, 9]: 0.0% | Mixed Copper Ethanolamine Complex Mean % Weed Control [5, 7]: 0.0% | Mixed Copper Ethanolamine Complex Mean % Weed Control [5, 8]: 0.0% | Mixed Copper Ethanolamine Complex Mean % Weed Control [5, 9]: 0.0%
